The source made the active and inactive calls. The rule behind the calls is not given here.
The molecules below were run on Leishmania donovani growth inhibition (assay: antileishmanial activity against L. donovani parasites (AID 1159560);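 note: parasites exposed to compound for 72 h before the viability read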).

SMILES	IC50
CN(C)S(=O)(=O)c1cccc(C(=O)Nc2nc(-c3ccccn3)cs2)c1	1.3 µM
Cc1cc(N(C)C)nc(Nc2ccccc2C)n1	> 50 µM (inactive)
O=C(Nc1nc(-c2ccccn2)cs1)c1ccc(S(=O)(=O)N2CCCCC2)cc1	0.63 µM
C=CC[C@@H]1CC=C[C@@H](C)N1C(=O)CCc1nnc(-c2ccc3c(c2)OCO3)o1	6.3 µM
NS(=O)(=O)c1ccc(Nc2nccc(-c3cnn4ncccc34)n2)cc1	0.79 µM
O=C(c1ccccc1)N1CCC(C(=O)N2CCC(Oc3ccccc3Cl)CC2)CC1	> 50 µM (inactive)
O=C(Nc1ccc(S(=O)(=O)N2CCCC2)cc1)c1ccc([N+](=O)[O-])s1	7.9 µM
c1ccc2sc(Nc3nc4ncccc4[nH]3)nc2c1	1.6 µM
O=C(Cn1cnc2c(-c3ccccc3)csc2c1=O)N1CCCCC1	> 50 µM (inactive)
c1ccc(-c2nc(NC3CCCC3)c3ccccc3n2)nc1	4 µM
Cc1ccc(S(=O)(=O)Cn2nnnc2C(c2cccnc2)N2CCN(c3ccccc3)CC2)cc1 (stereo not given)	1 µM
Cc1nc(-c2nc(NCc3ccc(Cl)cc3)c3cccnc3c2O)n[nH]1	2 µM
Cc1cc(Nc2cc(C3CC3)[nH]n2)nc(N2CCC[C@H]2C(N)=O)n1	0.63 µM
N#Cc1ccc(Br)cc1[N+](=O)[O-]	7.9 µM
Cc1ccc2ccc(C(Nc3ccccn3)c3cccnc3)c(O)c2n1 (stereo not given)	0.4 µM
CCN(Cc1ccncc1)Cc1ccc(NC(=O)c2cc(-c3ccc(F)cc3)n[nH]2)cc1	16 µM
N#Cc1cnc(Nc2cccc(CCN3CCOCC3)c2)nc1Nc1ccccc1C(N)=O	2.5 µM
CC(=O)Nc1ccc(CN2CCC(N3CC(c4ccccc4)(c4ccccc4)OCC3=O)CC2)cc1	0.5 µM
Oc1c(-c2n[nH]c(Cc3ccc(F)cc3)n2)ncc2cccnc12	0.13 µM
C[C@@H](Oc1cc(-n2cnc3ccc(C(O)CO)cc32)sc1C(N)=O)c1ccccc1C(F)(F)F (stereo not given in full)	16 µM
CC(C)Nc1nccc(-c2c(-c3ccc(F)cc3)ncn2C2CCOCC2)n1	25 µM
Cc1cccc(NS(=O)(=O)c2ccc3c(c2)C(=O)c2cc(S(=O)(=O)Nc4cccc(C)c4C)ccc2-3)c1C	> 50 µM (inactive)
Cc1cc(C)cc(NS(=O)(=O)c2cc(-c3cc(C)[nH]n3)ccc2C)c1	2.5 µM
CCN(CC)S(=O)(=O)c1ccc(C)c(NC(=O)c2cc(Cl)c3c(c2)OCO3)c1	> 50 µM (inactive)
O=C(NC1C(=O)N(c2ccccc2)C1c1cccnc1)c1ccc(Cl)s1 (stereo not given)	1 µM
Cc1ccc(NC(=O)c2ccc([N+](=O)[O-])s2)cc1S(=O)(=O)N1CCOCC1	2 µM
O=S(=O)(NCC(c1cccnc1)N1CCN(c2ccccc2F)CC1)c1ccc(F)cc1 (stereo not given)	4 µM

SMILES	IC50
COc1ccccc1C=CCN1C[C@H]2CCC[C@@H](C1)C2(O)c1cccnc1 (stereo not given in full)	> 50 µM (inactive)
COc1ccc(-c2cnc(C)o2)cc1S(=O)(=O)Nc1ccc(C)cc1C	4 µM
Cc1cccc(Nc2nc(-c3ccccn3)cs2)n1	4 µM
CS(=O)(=O)c1cccc(-c2cnc(N)c3c(-c4ccc(CO)cc4)csc23)c1	40 µM
Cc1ccc2c(c1)-c1onc(C(=O)N3CCCCC3c3cccnc3)c1CO2 (stereo not given)	32 µM
O=C(NCCc1cccnc1)c1csc(-c2ccccc2)n1	> 50 µM (inactive)
Nc1nc(-c2ccccn2)nc(N)c1Cc1c(F)cccc1Cl	2.5 µM
COc1cccc(S(=O)(=O)Nc2ccc3c(c2)CC(N2CCC(NC(=O)C4CC4)CC2)C3)c1 (stereo not given)	> 50 µM (inactive)
N#Cc1cc([N+](=O)[O-])ccc1NC1CCCCCC1	> 50 µM (inactive)
CN(CCOc1ccc(Cl)cc1)Cc1nc(N)nc(N(C)C)n1	16 µM
O=C(Cc1ccccc1)Nc1ccccc1C(=O)Nc1nccs1	> 50 µM (inactive)
COc1ccc(CN2CCCCC2c2nc(-c3cccnc3)no2)cc1 (stereo not given)	> 50 µM (inactive)
Cc1nc(N2CCC(C(=O)N3CCC(O)(c4cccnc4)CC3)CC2)nc2ccc(C(C)C)cc12	> 50 µM (inactive)
Cc1ccc2onc(Nc3ccnc(Nc4cccc(S(C)(=O)=O)c4)n3)c2c1	5 µM
Nc1nccc(-c2csc(Nc3ccc(Cl)cc3)n2)n1	4 µM
Nc1cc(-c2ccc3ncnc(N4CCOCC4)c3c2)cnc1N	4 µM
CCCn1c(NC(=O)Cc2ccc(Cl)cc2)nc2ccccc21	40 µM
COc1cnc2ccc(=O)n(CCN3CCC(NC(=O)c4ccc(Cl)cc4)CC3)c2c1	2 µM
O=C(CSc1ccc(-c2ccccn2)nn1)Nc1ccc(Cl)cc1	> 50 µM (inactive)
Cc1cc(N2CCc3ccccc3C2)nc(Nc2ccc(S(=O)(=O)N3CCOCC3)cc2)n1	3.2 µM
O=C(Nc1nc2ccccc2[nH]1)c1c(O)c2cccc3c2n(c1=O)CC3	2.5 µM
CC(C)(C)C(O)(CCc1ccc(Cl)cc1)Cn1cncn1 (stereo not given)	3.2 µM
O=S(=O)(c1cccc(CSc2nnc(-c3ccc4c(c3)OCO4)o2)c1)N1CCOCC1	0.5 µM
COc1cccc(Nc2cc(C)nc(-c3ccccn3)n2)c1	4 µM
CCN(CC)c1ncc(C(=O)c2ccc([N+](=O)[O-])o2)s1	5 µM
Cc1cc(NC(=O)CC2CCCCC2)n(-c2nc3c(c(=O)[nH]2)CCC3)n1	0.032 µM
Cc1nc(-c2ccncc2)ncc1C(C)NC(=O)c1ccc(Cl)s1 (stereo not given)	> 50 µM (inactive)

SMILES	IC50
CCn1c(-c2nonc2N)nc2c([C@@H](C)O)ncc(O[C@H](CN)c3ccccc3)c21	20 µM
Cc1ccc2c(c1)SC(C(=O)Nc1n[nH]c(-c3ccccn3)n1)C2 (stereo not given)	6.3 µM
Cc1cc(Nc2cc(C3CC3)[nH]n2)nc(N2CCCC2)n1	0.79 µM
COc1ccc(S(=O)(=O)NC(C)C)cc1Nc1ncc(-c2cccc(F)c2)cn1	6.3 µM
COc1ccc(Nc2nc(NC3CCC(O)CC3)ncc2Br)c(C(N)=O)c1 (stereo not given)	3.2 µM
O=C(CN(Cc1ccccn1)Cc1ccccn1)NCc1csc(-c2cccs2)n1	13 µM
Cn1ccnc1CN1CCc2[nH]cnc2C1c1ccccc1OCc1ccccc1 (stereo not given)	> 50 µM (inactive)
COc1ccc(NS(=O)(=O)c2cccc(NC(=O)c3cc(F)cc(F)c3)c2)cc1	3.2 µM
Cc1occc1C(=O)Nc1ccccc1C(=O)Nc1nccs1	> 50 µM (inactive)
CNc1cncc(C2CCCN2C(=O)Cc2coc3cc(C)ccc23)n1 (stereo not given)	3.2 µM
O=c1cc(CSc2ccc(Cl)cc2)nc(-c2ccccn2)[nH]1	1.6 µM
O=C(CN1CCC2(O)CCCCC2C1c1ccc2c(c1)OCO2)Nc1ccc(Cl)cc1Cl (stereo not given)	5 µM
COc1ccc(C(=O)[C@H]2C[C@@H]2CN(Cc2ccccn2)Cc2ccccn2)cc1	7.9 µM
NC(=O)c1ncccc1Nc1nc(NC2CCC(O)CC2)ncc1Br (stereo not given)	1.3 µM
COc1cc2c(cc1OC)[C@H]1[C@@H](C)c3ccc(OC)c(OC)c3CN1CC2	2.5 µM
Cc1nn(-c2nc3ccccc3s2)c2c1C(c1ccc(OCC(N)=O)cc1)SCC(=O)N2 (stereo not given)	> 50 µM (inactive)
COc1ccnc2[nH]cc(-c3cc(C(=O)N[C@H](CO)c4ccccc4)co3)c12	25 µM
NCc1csc(Nc2cc(Oc3ccccc3)ncn2)n1	> 50 µM (inactive)
O=C(NCCCn1cnc2ccccc21)c1ccc(NC(=O)c2ccco2)cc1	1.3 µM
Oc1cccnc1-c1n[nH]c(Cc2ccccc2)n1	2 µM
Cc1nn2c(NCCCO)c3c(nc2c1-c1cccs1)CCC3	2 µM
CN(C)S(=O)(=O)c1ccc(-c2cnc(N)c(-c3nc4ccc(F)cc4[nH]3)c2)cc1	2.5 µM
CC(=Cc1ccccc1)CN1CCC(=O)N(Cc2cccnc2)CC1	> 50 µM (inactive)
COc1ccc2ncc(=O)n(CCN3CCC(NCc4ccc(-c5cccs5)cc4)CC3)c2n1	1.6 µM
COc1cnc2ccc(=O)n(CCN3CCC(NC/C=C/c4cc(F)ccc4F)CC3)c2c1	5 µM
Cc1[nH]c2ccccc2c(=O)c1Cc1c(C)[nH]c2ccccc2c1=O	20 µM
CCN(C)Cc1ccc(N2CCC(NS(=O)(=O)c3ccc4c(c3)CCO4)CC2)nc1	> 50 µM (inactive)

SMILES	IC50
Cc1nc(-c2ccc3c(c2)OCO3)sc1C(=O)NCc1ccc2c(c1)OCO2	2 µM
CCOc1ccc2nc(NC(=O)c3ccc([N+](=O)[O-])s3)sc2c1	2.5 µM
CCCc1cc(N)nc(-c2cc(CCC)cc(N)n2)c1	20 µM
COc1cccc(-c2c(C)nn(-c3nc(N)nc(-c4ccccn4)n3)c2N)c1	5 µM
CN(C)c1ncc(-c2cncn2CCOc2ccc(Cl)cc2)cn1	> 50 µM (inactive)
CC(C)N(C(=O)CN1C(=O)C(N)C(=O)N(c2ccccc2)c2ccccc21)c1ccccc1 (stereo not given)	> 50 µM (inactive)
O=C(Nc1n[nH]c(-c2ccccn2)n1)C1CC1c1ccccc1 (stereo not given)	13 µM
Cc1nc(N2CC(C)OC(C)C2)sc1C(=O)Nc1ccc2c(c1)OCO2 (stereo not given)	6.3 µM
O=C(Nc1ccc(-c2nc3ccccc3c(=O)[nH]2)cc1)c1cccs1	> 50 µM (inactive)
Nc1nc(-c2ccccn2)nc(-n2nc(-c3cccc(C(F)(F)F)c3)cc2N)n1	10 µM
Cc1ccccc1NS(=O)(=O)c1ccc2[nH]cc(C(=O)NC3CCCC3)c(=O)c2c1	> 50 µM (inactive)
CS(=O)(=O)c1cccc(CNC(=O)c2cncc(N3CCN(c4ccc(F)cc4)CC3)c2)c1	> 50 µM (inactive)
O=C1CN(C2CCCc3c(OCc4ccncc4)cccc32)C(=O)N1C1CCCCC1 (stereo not given)	> 50 µM (inactive)
CN(Cc1nc2c(C(=O)N3CCN(Cc4ccccc4)CC3)cccc2[nH]1)C1CCCc2cccnc21 (stereo not given)	5 µM
CC(=O)NC1(c2ccccc2)CCN(CC(=O)Nc2ccccc2-c2ccccc2)CC1	20 µM
COc1ccc([N+](=O)[O-])cc1NC(=O)c1cc(Cl)ccc1O	7.9 µM
Cc1nc2nc(C)c(Cc3ccc(C(C)C)cc3)c(=O)n2[nH]1	1.3 µM
CC(C)n1c(-c2nonc2N)nc2cccc(OCCN3CCCC3)c21	> 50 µM (inactive)
CS(=O)(=O)NC1CCC(Nc2ncc(Br)c(Nc3ccccc3C(N)=O)n2)CC1 (stereo not given)	1 µM
NC(=O)c1cc(NC(=O)c2ccccc2COc2ccccc2)ccc1Cl	7.9 µM
N#CN1CC[C@@H](NC(=O)Nc2ccccc2Oc2ccccc2)C1	3.2 µM
O=c1ccc2ccc(F)c3c2n1C[C@H]3CN1CCN(CC(O)c2cc3c(cn2)OCS3)CC1 (stereo not given in full)	20 µM
COc1ccc(OC)c(NC(=O)c2ccc([N+](=O)[O-])o2)c1	25 µM
O=C(CN(Cc1ccccn1)Cc1ccccn1)NCc1ccc(-c2csnn2)cc1	7.9 µM

— PubChem BioAssay AID1159560 (GlaxoSmithKline (GSK), 2015)
